# Patent US12466817B2, “Pyridine derivative and application thereof” (Nicoya Therapeutics (Shanghai) Co., Ltd, priority 2020, dated 2025)
# pIC50: −log10 of the molar value.
# Biological target: T1, CCR2 (Homo sapiens, UniProt P41597)
# T1 construct: expressed in transfected cells; host or cells: HEK293, clone C7, passage P6
# Assay: CCR2 FLIPR Calcium assay (intracellular calcium signaling)
# Format: cell-based
# Conditions: HEK293 host cells, clone C7; agonist MCP-1; Fluo-4 calcium signal
# Experimental: (§1) The inhibitory effects of the compounds on CCR2 and CCR5 receptors were evaluated by detecting intracellular calcium signaling changes by FLIPR Calcium assay, using the IC50 values of the compounds as indicators.
# (§2) 1. Cell lines: The cells were seeded and incubated overnight at 37° C. in a 5% CO2 incubator CCR2/CCR5 density: 1 M (20 k/well)
# (§3) 2. Reagent: Fluo-4 Direct, (Invitrogen, Cat #F10471)
# (§4) The compound was prepared by dissolving in DMSO to a 10 mM solution, and the compound solution was placed in a nitrogen chamber.
# (§5) Preparation of probenecid in FLIPR assay buffer: 1 mL of FLIPR assay buffer was added to 77 mg of probenecid to make a 250 mM solution. The solution was prepared every day to keep fresh.
# (§6) 2× (8 μM) Fluo-4 Direct™ loading buffer (10 mL of each)
# (§7) 0.2 mL of probenecid was added to each 10 mL of Fluo-Direct. The final measured concentration was 2.5 mM MCP-1 was diluted in FLIPR assay buffer 1:2 for 10 spots, starting at 0.5 μM (eventually to […]). RANTES was diluted in FLIPR assay buffer 1:3 for 10 spots, starting at 0.5 μM (eventually to […]). 20 μL of serially diluted compound buffer was added to each well of the DRC plate.
# (§8) The standard compound was diluted in DMSO 1:3 for 11 points, starting at 1 mM.
# (§9) The test compound was diluted in DMSO 1:3 for 11 spots, starting at 2 mM. 250 nL of compound solution was transferred to cell plates using Echo (Greiner #781946) c) The cell plate was taken from the incubator and 20 μL of 2× Fluo-4 Direct no wash loading buffer was gently dispensed into a 384-well cell culture plate using a pipette. The volume in the final cell plate was 40 μL […]
# (§10) d) Incubation was conducted at 37° C. 5% CO2 for 50 minutes, at room temperature for 10 minutes e) The cell plate was taken from the incubator and placed in the FLIPR. The composite plate and pipette tip box were placed in the FLIPR
# (§11) 5) The “Max-Min” was calculated from Read 90 to the maximum allowed. EC80 values for each cell line were calculated using FLIPR
# (§12) 6) Agonist reference compound at 5 times EC80 concentration was prepared 2) 10 μL of agonist reference compound at 5 times EC80 concentration was transferred from the composite plate to the cell plate.
# (§13) 3) Fluorescence signals were read.
# (§14) 4) The “Max-Min” was calculated from Read 90 to the maximum allowed h) Data was analyzed by using Prism, the IC50 values of the compounds were calculated.
# T1 sequence (P41597 whole entry, species assumed): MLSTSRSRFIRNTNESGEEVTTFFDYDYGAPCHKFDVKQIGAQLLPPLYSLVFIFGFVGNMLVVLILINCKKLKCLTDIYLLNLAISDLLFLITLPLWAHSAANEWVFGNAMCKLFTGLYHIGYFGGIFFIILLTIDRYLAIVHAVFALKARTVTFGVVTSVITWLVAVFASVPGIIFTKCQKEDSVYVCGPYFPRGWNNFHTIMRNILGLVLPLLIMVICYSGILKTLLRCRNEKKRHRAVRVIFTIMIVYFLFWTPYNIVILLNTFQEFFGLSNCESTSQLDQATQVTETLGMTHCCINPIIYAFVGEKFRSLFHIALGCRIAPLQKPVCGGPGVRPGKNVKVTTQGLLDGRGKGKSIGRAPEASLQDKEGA
row,Molecule,pIC50
1,"CCCCOCCOc1ccc(-c2ccc3c(c2)C=C(C(=O)Nc2ccc([S+]([O-])Cc4cnccc4CC)cc2)CCCN3CC2COCCO2)cc1 (single isomer, unassigned) [WX002]",7.71
2,"CCCCOCCOc1ccc(-c2ccc3c(c2)C=C(C(=O)Nc2ccc([S+]([O-])Cc4cnccc4CC)cc2)CCCN3CC2COCCO2)cc1 (single isomer, unassigned) [WX003]",7.78
3,"CCCCOCCOc1ccc(-c2ccc3c(c2)C=C(C(=O)Nc2ccc([S+]([O-])Cc4cnccc4CC)cc2)CCCN3CC2CCCO2)cc1 (single isomer, unassigned) [WX004]",7.71
4,"CCCCOCCOc1ccc(-c2ccc3c(c2)C=C(C(=O)Nc2ccc([S+]([O-])Cc4cnccc4CC)cc2)CCCN3CC2CCCO2)cc1 (single isomer, unassigned) [WX005]",7.68
5,"CCCCOCCOc1ccc(-c2ccc3c(c2)C=C(C(=O)Nc2ccc([S+]([O-])Cc4c(CC)ccnc4C)cc2)CCCN3CC2CCOCC2)cc1 (single isomer, unassigned) [WX006]",7.80
6,"CCCCOCCOc1ccc(-c2ccc3c(c2)C=C(C(=O)Nc2ccc([S+]([O-])Cc4c(CC)ccnc4C)cc2)CCCN3CC2CCCO2)cc1 (single isomer, unassigned) [WX008]",7.82
7,"CCCCOCCOc1ccc(-c2ccc3c(c2)/C=C(/C(=O)Nc2ccc([S@+]([O-])Cc4c(CC)ccnc4C)cc2)CCCN3C[C@H]2CCCO2)cc1 (single isomer, unassigned) [WX010]",7.86
8,"CCCCOCCOc1ccc(-c2ccc3c(c2)/C=C(/C(=O)Nc2ccc([S@+]([O-])Cc4c(CC)ccnc4C)cc2)CCCN3C[C@H]2CCCO2)cc1 (single isomer, unassigned) [WX011]",8.94
9,"CCCCOCCOc1ccc(-c2ccc3c(c2)C=C(C(=O)Nc2ccc([S+]([O-])Cc4cnc(C)cc4CC)cc2)CCCN3CC2CCOCC2)cc1 (single isomer, unassigned) [WX013]",7.70
10,"CCCCOCCOc1ccc(-c2ccc3c(c2)C=C(C(=O)Nc2ccc([S+]([O-])Cc4cnc(C)cc4CC)cc2)CCCN3CC2CCCO2)cc1 (single isomer, unassigned) [WX014]",8.86
11,"CCCCOCCOc1ccc(-c2ccc3c(c2)C=C(C(=O)Nc2ccc([S+]([O-])Cc4cnc(C)cc4CC)cc2)CCCN3CC2CCCO2)cc1 (single isomer, unassigned) [WX015]",7.67
12,"CCCCOCCOc1ccc(-c2ccc3c(c2)/C=C(/C(=O)Nc2ccc([S@+]([O-])Cc4cnc(C)cc4CC)cc2)CCCN3C[C@H]2CCCO2)cc1 (single isomer, unassigned) [WX016]",8.76
13,"CCCCOCCOc1ccc(-c2ccc3c(c2)/C=C(/C(=O)Nc2ccc([S@+]([O-])Cc4cnc(C)cc4CC)cc2)CCCN3C[C@H]2CCCO2)cc1 (single isomer, unassigned) [WX017]",7.47
14,CCCCOCCOc1ccc(-c2ccc3c(c2)/C=C(/C(=O)Nc2ccc([S+]([O-])Cc4cnccc4CC)cc2)CCCN3CC2CCOCC2)cc1 (stereo not shown) [WX001],7.75
15,CCCCOCCOc1ccc(-c2ccc3c(c2)/C=C(/C(=O)Nc2ccc([S@+]([O-])Cc4c(CC)ccnc4CC)cc2)CCCN3CC2CCOCC2)cc1 [WX025],8.65

# Biological target: T2, CCR5 (Homo sapiens, UniProt P51681)
# T2 construct: expressed in transfected cells; host or cells: HEK293, clone C13, passage P4
# T2 sequence (P51681 whole entry, species assumed): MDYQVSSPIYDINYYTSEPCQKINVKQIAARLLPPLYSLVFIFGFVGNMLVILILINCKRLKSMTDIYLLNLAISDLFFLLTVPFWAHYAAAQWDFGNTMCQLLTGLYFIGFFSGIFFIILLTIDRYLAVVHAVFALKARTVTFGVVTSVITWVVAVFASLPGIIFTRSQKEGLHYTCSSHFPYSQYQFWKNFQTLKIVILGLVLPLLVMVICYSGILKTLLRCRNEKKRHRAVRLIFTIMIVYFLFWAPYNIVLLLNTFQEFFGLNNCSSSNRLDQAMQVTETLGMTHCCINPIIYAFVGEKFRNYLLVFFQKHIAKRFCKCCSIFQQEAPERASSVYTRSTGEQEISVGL
# Assay: CCR5 FLIPR Calcium assay (intracellular calcium signaling)
# Format: cell-based
# Conditions: HEK293 host cells, clone C13; agonist RANTES; Fluo-4 calcium signal
# Experimental: as §1, §2, §3, §4, §5, §6, §7, §8, §9, §10, §11, §12, §13, §14
row,Molecule,pIC50
1,"CCCCOCCOc1ccc(-c2ccc3c(c2)C=C(C(=O)Nc2ccc([S+]([O-])Cc4cnccc4CC)cc2)CCCN3CC2COCCO2)cc1 (single isomer, unassigned) [WX002]",8.13
2,"CCCCOCCOc1ccc(-c2ccc3c(c2)C=C(C(=O)Nc2ccc([S+]([O-])Cc4cnccc4CC)cc2)CCCN3CC2COCCO2)cc1 (single isomer, unassigned) [WX003]",7.93
3,"CCCCOCCOc1ccc(-c2ccc3c(c2)C=C(C(=O)Nc2ccc([S+]([O-])Cc4cnccc4CC)cc2)CCCN3CC2CCCO2)cc1 (single isomer, unassigned) [WX004]",8.19
4,"CCCCOCCOc1ccc(-c2ccc3c(c2)C=C(C(=O)Nc2ccc([S+]([O-])Cc4cnccc4CC)cc2)CCCN3CC2CCCO2)cc1 (single isomer, unassigned) [WX005]",8.05
5,"CCCCOCCOc1ccc(-c2ccc3c(c2)/C=C(/C(=O)Nc2ccc([S@+]([O-])Cc4c(CC)ccnc4C)cc2)CCCN3C[C@H]2CCCO2)cc1 (single isomer, unassigned) [WX011]",8.42
6,"CCCCOCCOc1ccc(-c2ccc3c(c2)C=C(C(=O)Nc2ccc([S+]([O-])Cc4cnc(C)cc4CC)cc2)CCCN3CC2CCCO2)cc1 (single isomer, unassigned) [WX014]",7.92
7,"CCCCOCCOc1ccc(-c2ccc3c(c2)/C=C(/C(=O)Nc2ccc([S@+]([O-])Cc4cnc(C)cc4CC)cc2)CCCN3C[C@H]2CCCO2)cc1 (single isomer, unassigned) [WX016]",7.78
8,"CCCCOCCOc1ccc(-c2ccc3c(c2)C=C(C(=O)Nc2ccc([S+]([O-])Cc4c(C)ccnc4C)cc2)CCCN3CC2CCOCC2)cc1 (single isomer, unassigned) [WX018]",7.82
9,"CCCCOCCOc1ccc(-c2ccc3c(c2)C=C(C(=O)Nc2ccc([S+]([O-])Cc4c(C)ccnc4C)cc2)CCCN3CC2CCOCC2)cc1 (single isomer, unassigned) [WX019]",8.41
10,"CCCCOCCOc1ccc(-c2ccc3c(c2)/C=C(/C(=O)Nc2ccc([S+]([O-])Cc4c(C)ccnc4C)cc2)CCCN3CC2CCCO2)cc1 (single isomer, unassigned) [WX020]",8.25
11,"CCCCOCCOc1ccc(-c2ccc3c(c2)/C=C(/C(=O)Nc2ccc([S+]([O-])Cc4c(C)ccnc4C)cc2)CCCN3CC2CCCO2)cc1 (single isomer, unassigned) [WX021]",8.23
12,"CCCCOCCOc1ccc(-c2ccc3c(c2)/C=C(/C(=O)Nc2ccc([S+]([O-])Cc4cnc(C)cc4C)cc2)CCCN3CC2CCCO2)cc1 (single isomer, unassigned) [WX023]",8.01
13,"CCCCOCCOc1ccc(-c2ccc3c(c2)/C=C(/C(=O)Nc2ccc([S+]([O-])Cc4cnc(C)cc4C)cc2)CCCN3CC2CCCO2)cc1 (single isomer, unassigned) [WX024]",7.95
14,CCCCOCCOc1ccc(-c2ccc3c(c2)/C=C(/C(=O)Nc2ccc([S+]([O-])Cc4cnccc4CC)cc2)CCCN3CC2CCOCC2)cc1 (stereo not shown) [WX001],8.36
15,CCCCOCCOc1ccc(-c2ccc3c(c2)/C=C(/C(=O)Nc2ccc([S+]([O-])Cc4cnc(C)cc4C)cc2)CCCN3CC2CCOCC2)cc1 (stereo not shown) [WX022],7.87
16,CCCCOCCOc1ccc(-c2ccc3c(c2)/C=C(/C(=O)Nc2ccc([S@+]([O-])Cc4c(CC)ccnc4CC)cc2)CCCN3CC2CCOCC2)cc1 [WX025],8.37

# Biological target: T3, CYP3A4 (Homo sapiens, UniProt P08684)
# T3 construct: from tissue; host or cells: human liver microsomes
# T3 sequence (P08684 whole entry): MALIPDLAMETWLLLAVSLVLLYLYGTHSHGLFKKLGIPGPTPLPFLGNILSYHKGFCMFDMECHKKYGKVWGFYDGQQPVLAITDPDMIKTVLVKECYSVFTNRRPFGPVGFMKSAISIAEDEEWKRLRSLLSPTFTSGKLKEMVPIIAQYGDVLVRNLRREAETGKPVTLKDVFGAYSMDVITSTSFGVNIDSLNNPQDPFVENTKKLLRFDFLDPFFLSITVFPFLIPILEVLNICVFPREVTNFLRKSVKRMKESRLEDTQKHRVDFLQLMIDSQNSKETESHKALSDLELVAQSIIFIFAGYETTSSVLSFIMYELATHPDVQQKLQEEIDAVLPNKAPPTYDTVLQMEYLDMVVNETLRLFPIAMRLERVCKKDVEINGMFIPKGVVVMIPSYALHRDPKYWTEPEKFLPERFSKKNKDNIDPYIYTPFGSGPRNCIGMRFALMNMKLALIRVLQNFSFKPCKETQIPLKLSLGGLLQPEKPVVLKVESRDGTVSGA
# Assay: Inhibition of human liver microsomal CYP3A4 activity
# Format: in vitro ADME
# Conditions: human liver microsomes, conclusion
# Experimental: A total of five specific probe substrates for the five isozymes of CYP, phenacetin (CYP1A2), diclofenac (CYP2C9), (S′)-mephenytoin (CYP2C19), dextromethorphan ([…]), and midazolam (CYP3A4), were incubated respectively with human liver microsomes and the test compounds, and the reaction was initiated by the addition of reduced nicotinamide adenine dinucleotide phosphate (NADPH), and the samples were treated and the concentrations of the five metabolites produced by the specific substrates, acetaminophen, 4′-hydroxydiclofenac, 4′-hydroxymephenytoin, dextrorphan and 1′-hydroxymidazolam were measured by liquid chromatography tandem mass spectrometry (LC-MS/MS) after the end of the reaction, and the corresponding half maximal inhibitory concentrations (IC50) were calculated.
row,Molecule,Inhibition of CYP3A4 (in words)
1,"CCCCOCCOc1ccc(-c2ccc3c(c2)/C=C(/C(=O)Nc2ccc([S@@+]([O-])Cc4cncn4CCC)cc2)CCCN3CC2CC2)cc1 [Reference A, reference compound]",strong inhibition

# Same assay, conditions: human liver microsomes, conclusion; listed as reference compound
row,Molecule,Inhibition of CYP3A4 (in words)
1,"Cenicriviroc [(Cenicriviroc), reference compound]",strong inhibitory effect

# Same assay, conditions: human liver microsomes, conclusion; listed as reference compounds
row,Molecule,Inhibition of CYP3A4 (in words)
1,"Cenicriviroc [(Cenicriviroc), reference compound]",strong inhibition

# Tested on: not listed separately
# Assay: Comparative pharmacokinetic test in mice
# Format: in vivo, C57BL/6 male mice
# Conditions: male, C57BL/6, mouse, plasma; mice, intravenous injection 2 mg/kg
# Experimental: C57BL/6 male mice were used as test animals in the present study, and the plasma drug concentrations of the test compound WX009 and the reference compound in mice by intravenous administration or oral administration were quantified by LC/MS/MS method at different time points respectively to evaluate the pharmacokinetic characteristics of the two test drugs in mice.
# A clarified solution of the test compound was injected via tail vein into C57BL/6 mice (overnight fasting, 7-10 weeks old), and the test compound was given by gavage into C57BL/6 mice (overnight fasting, 7-10 weeks old). Approximately 30 μL of blood was collected from the jugular or tail vein at 0.0833, 0.25, 0.5, 1, 2, 4, 6, 8, and 24 hours after administration, and placed in anticoagulation tubes added with EDTA-K2, then centrifuged at 4° C. for 15 minutes at 3000 g to give the plasma. Plasma drug concentration was determined by LC-MS/MS, and relevant pharmacokinetic parameters were calculated using WinNonlin™ Version 6.3 (Pharsight, Mountain View, CA) pharmacokinetic software with a non-compartmental model linear logarithmic trapezoidal method.
row,Molecule,half-life [h]
1,"CCCCOCCOc1ccc(-c2ccc3c(c2)/C=C(/C(=O)Nc2ccc([S@@+]([O-])Cc4cncn4CCC)cc2)CCCN3CC(C)C)cc1 [(Cenicriviroc), Cenicriviroc, reference compound]",3.55

# Same assay, conditions: male, C57BL/6, mouse, plasma; mice, intravenous injection 2 mg/kg; read-out: Plasma clearance rate
row,Molecule,clearance [mL/min/kg]
1,"CCCCOCCOc1ccc(-c2ccc3c(c2)/C=C(/C(=O)Nc2ccc([S@@+]([O-])Cc4cncn4CCC)cc2)CCCN3CC(C)C)cc1 [(Cenicriviroc), Cenicriviroc, reference compound]",2.28

# Same assay, conditions: male, C57BL/6, mouse, plasma; mice, oral 10 mg/kg
row,Molecule,bioavailability [%]
1,"CCCCOCCOc1ccc(-c2ccc3c(c2)/C=C(/C(=O)Nc2ccc([S@@+]([O-])Cc4cncn4CCC)cc2)CCCN3CC(C)C)cc1 [(Cenicriviroc), Cenicriviroc, reference compound]",6.02

# Same assay, conditions: mice, oral 10 mg/kg
Molecule,Area under the time-concentration curve (0-inf) [µM·h],Peak concentration [nM],Peak time [h]
"CCCCOCCOc1ccc(-c2ccc3c(c2)/C=C(/C(=O)Nc2ccc([S@@+]([O-])Cc4cncn4CCC)cc2)CCCN3CC(C)C)cc1 [(Cenicriviroc), Cenicriviroc, reference compound]",6.401,1533,1.0
